Data on 30 compounds can be found in patent publication US11827628B2, “Compositions and methods for inhibition of the JAK pathway” (Rigel Pharmaceuticals, Inc., priority 2005, dated 2023).

Like-named read-outs stand apart in the source and are kept apart here.

The test system of assay [1] is Primary human T-cells. Kind of assay: Primary Human T-Cell Proliferation Assay Stimulated with IL-2 (CellTiter-Glo). Type of assay: cell-based. To be noted: primary human T-cells stimulated with IL-2, proliferation, read-out: IC50, Example 42. The method in brief:
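IC50 derived from CellTiter-Glo ATP signal after 72 hours of IL-2-driven proliferation at 37° C. Cells: primary human T-cells from blood, stimulated beforehand 3-4 days on anti-CD3/anti-CD28 with IL-2, then rested from IL-2 before compound exposure in duplicate; IL-2-free wells served as unstimulated control.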

Assay [2] has as its system IL-4 stimulated expression of CD23 in human Ramos B cells (JAK-1 and JAK-3). As to the kind of experiment: Assay for Ramos B-Cell Line Stimulated with IL-4 (CD23 upregulation, FACS). The assay is classed as cell-based. To be noted: Ramos B cells stimulated with IL-4, CD23 expression by FACS, read-out: IC50, Example 41. The method, boiled down: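 Steps: Ramos B cells are suspended in RPMI with 5% serum, exposed to compound for 1 h at 37 °C, stimulated with IL-4 (final 50 units/mL) for 20-24 h, stained for CD23 and analysed by flow cytometry. IC50 is calculated.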
A general note: Flow cytometry measures light scatter and fluorescence of single cells or particles in a stream.

Usually IC50 stands for the concentration that inhibits the measured activity by half. Regarding `C#CCNS(=O)(=O)c1ccc(Nc2nc(Nc3ccc(C)c(S(N)(=O)=O)c3)ncc2F)cc1` [VI-76, N2-(3-Aminosulfonyl-4-methylphenyl)-5-fluoro-N4-[4-(prop-2-ynylaminosulfonyl)phenyl]-2,4-pyrimidinediamine], the IC50 in assay [1] (Homo sapiens, T-cell) came out at 783 nM; in assay [2] (Homo sapiens, Ramos), 549 nM.
The like results for `NS(=O)(=O)c1ccc(Nc2ncc(F)c(Nc3ccc(CCCF)cc3)n2)cc1` [VI-82, N2-(4-Aminosulfonylphenyl)-5-fluoro-N4-[4-(3-fluoropropyl)phenyl]-2,4-pyrimidinediamine] were, in that order, 1630 nM and 212 nM.
The like results for `Cc1ccc(Nc2ncc(F)c(Nc3ccc(CCCO)cc3)n2)cc1S(N)(=O)=O` [VI-87, N2-(3-Aminosulfonyl-4-methylphenyl)-5-fluoro-N4-[4-(3-hydroxypropyl)phenyl]-2,4-pyrimidinediamine] were, in that order, 1240 nM and 541 nM.
For `Cc1ccc(Nc2ncc(F)c(Nc3ccc(CCCCO)cc3)n2)cc1S(N)(=O)=O` [VI-90, N2-(3-Aminosulfonyl-4-methylphenyl)-5-fluoro-N4-[4-(4-hydroxybutyl)phenyl]-2,4-pyrimidinediamine], in that order: 3970 nM and 1080 nM.
With `NS(=O)(=O)c1ccc(Nc2ncc(F)c(Nc3ccc(CCCCF)cc3)n2)cc1` [VI-91, N2-(4-Aminosulfonylphenyl)-5-fluoro-N4-[4-(4-fluorobutyl)phenyl]-2,4-pyrimidinediamine], the IC50 was 1230 nM in assay [1] (Homo sapiens, T-cell) and 221 nM in assay [2] (Homo sapiens, Ramos).
The like results for `Cc1ccc(Nc2ncc(F)c(Nc3ccc(CCCCF)cc3)n2)cc1S(N)(=O)=O` [VI-93, N2-(3-Aminosulfonyl-4-methylphenyl)-5-fluoro-N4-[4-(4-fluorobutyl)phenyl]-2,4-pyrimidinediamine] were, in that order, 560 nM and 110 nM.
The like results for `N#Cc1cc(Nc2nc(Nc3cccc(S(N)(=O)=O)c3)ncc2F)ccc1F` [VI-98, N2-(3-Aminosulfonylphenyl)-N4-(3-cyano-4-fluorophenyl)-5-fluoro-2,4-pyrimidinediamine] were, in that order, 986 nM and 136 nM.
`Cc1ccc(Nc2nc(Nc3cccc(S(N)(=O)=O)c3)ncc2F)cc1C#N` [VI-99, N2-(3-Aminosulfonylphenyl)-N4-(3-cyano-4-methylphenyl)-5-fluoro-2,4-pyrimidinediamine]: the IC50 was 617 nM in assay [1] (Homo sapiens, T-cell) and 68.5 nM in assay [2] (Homo sapiens, Ramos).
The like results for `COc1ccc(Nc2nc(Nc3ccc(S(N)(=O)=O)cc3)ncc2F)cc1Cl` [VI-106, N2-(4-Aminosulfonylphenyl)-5-fluoro-N4-(4-methoxy-3-chlorophenyl]-2,4-pyrimidinediamine] were, in that order, 1200 nM and 62.2 nM.
The like results for `NS(=O)(=O)c1ccc(Nc2ncc(F)c(Nc3ccc(Cl)c(Cl)c3)n2)cc1` [VI-109, N2-(4-Aminosulfonylphenyl)-N4-(3,4-dichlorophenyl)-5-fluoro-2,4-pyrimidinediamine] were, in that order, 2870 nM and 136 nM.
Turning to `COc1ccc(Nc2nc(Nc3cccc(S(N)(=O)=O)c3)ncc2F)nc1N` [VII-7, N2-(3-Aminosulfonylphenyl)-N4-(2-amino-3-methoxypyrid-6-yl)-5-fluoro-2,4-pyrimidinediamine], the IC50 was determined as 3920 nM in assay [1] (Homo sapiens, T-cell) and 502 nM in assay [2] (Homo sapiens, Ramos).
For `COc1ccc(Nc2nc(Nc3ccc(Cl)c(S(N)(=O)=O)c3)ncc2F)nc1N` [VII-8, N2-(3-Aminosulfonyl-4-chlorophenyl)-N4-(2-amino-3-methoxypyrid-6-yl)-5-fluoro-2,4-pyrimidinediamine], in that order: 8630 nM and 399 nM.
In the case of `CNC(=O)N1CCCc2cc(Nc3nc(Nc4cccc(S(N)(=O)=O)c4)ncc3F)ccc21` [VII-20, N2-(3-Aminosulfonylphenyl)-5-fluoro-N4-[1-(methylaminocarbonyl)-1,2,3,4-tetrahydroquin-6-yl]-2,4-pyrimidinediamine], the IC50 in assay [1] amounted to 698 nM; in assay [2], 286 nM.
Turning to `Cc1ccc(Nc2ncc(C)c(Nc3ccc4c(c3)N(C)C(=O)CS4)n2)cc1S(N)(=O)=O` [VII-33, N2-(3-Aminosulphonyl-4-methylphenyl)-5-methyl-N4-(4-methyl-3-oxo-benzo[1,4]thiazin-6-yl)-2,4-pyrimidinediamine], the IC50 in assay [1] (Homo sapiens, T-cell) worked out at 18.4 nM; in assay [2] (Homo sapiens, Ramos), 28.9 nM.
Take `Cc1cnc(Nc2ccc(S(N)(=O)=O)cc2)nc1Nc1ccc2c(c1)N(C)C(=O)CS2` [VII-34, N2-(4-Aminosulphonylphenyl)-5-methyl-N4-(4-methyl-3-oxo-benzo[1,4]thiazin-6-yl)-2,4-pyrimidinediamine]: the IC50 turned out to be 22.5 nM in assay [1] (Homo sapiens, T-cell) and 45 nM in assay [2] (Homo sapiens, Ramos).
For `COc1c(C)cc(Nc2ncc(F)c(Nc3ccc4c(c3)NC(=O)C(F)(F)O4)n2)cc1S(N)(=O)=O` [VII-38, N2-(3-Aminosulfonyl-4-methoxy-5-methylphenyl)-N4-(2,2-difluoro-4H-benz[1,4]oxazin-3-on-6-yl)-5-fluoro-2,4-pyrimidinediamine], in that order: 417 nM and 62.3 nM.
As for `CC1(C)Oc2ccc(Nc3nc(Nc4cccc(S(N)(=O)=O)c4)ncc3N)cc2NC1=O` [VII-39, 5-Amino-N2-(3-amionsulfonylphenyl)-N4-(2,2-dimethyl-3-oxo-4H-benz[1,4]oxazin-6-yl)-2,4-pyrimidinediamine], the half-maximal inhibitory concentration (IC50) was determined as 919 nM in assay [1] and 772 nM in assay [2].
Turning to `CN1C(=O)COc2ccc(Nc3nc(Nc4ccc(S(N)(=O)=O)cc4)ncc3F)cc21` [VII-40, N2-(4-Aminosulfonylphenyl)-5-fluoro-N4-(4-methyl-3-oxo-benz[1,4]oxazin-6-yl)-2,4-pyrimidinediamine], the IC50 came to 6480 nM in assay [1] (Homo sapiens, T-cell) and 236 nM in assay [2] (Homo sapiens, Ramos).
The like results for `CN1C(=O)COc2ccc(Nc3nc(Nc4cccc(S(N)(=O)=O)c4)ncc3F)cc21` [VII-41, N2-(3-Aminosulfonylphenyl)-5-fluoro-N4-(4-methyl-3-oxo-benz[1,4]oxazin-6-yl)-2,4-pyrimidinediamine] were, in that order, 264 nM and 46.9 nM.
As for `CC1(C)Oc2cc(Nc3nc(Nc4cccc(S(N)(=O)=O)c4)ncc3F)cnc2NC1=O` [VII-51, N2-(3-Aminosulfonylphenyl)-N4-[2,2-dimethyl-3-oxo-4H-5-pyrid[1,4]oxazin-7-yl]-5-fluoro-2,4-pyrimidinediamine], the IC50 worked out at 1790 nM in assay [1] and 541 nM in assay [2].
The like results for `CC(C)(C)OC(=O)NC1CCOc2ccc(Nc3nc(Nc4ccc(S(N)(=O)=O)cc4)ncc3F)cc21` (stereo not drawn) [VII-59, N2-(4-Aminosulfonylphenyl)-N4-(4-N-tert-butoxycarbonylamino-3,4-dihydro-2H-1-benzopyran-6-yl)-5-fluoro-2,4-pyrimidinediamine] were, in that order, 2990 nM and 831 nM.
For `Cc1ccc(Nc2ncc(F)c(Nc3ccc4ccccc4n3)n2)cc1S(N)(=O)=O` [VII-64, N2-(3-Aminosulfonyl-4-methylphenyl)-5-fluoro-N4-(quinolin-2-yl)-2,4-pyrimidinediamine], the IC50 in assay [1] (Homo sapiens, T-cell) turned out to be 3810 nM; in assay [2] (Homo sapiens, Ramos) it was 363 nM.
For `Cc1ccc(Nc2ncc(F)c(Nc3cnc4ccccc4c3)n2)cc1S(N)(=O)=O` [VII-65, N2-(3-Aminosulfonyl-4-methylphenyl)-5-fluoro-N4-(quinolin-3-yl)-2,4-pyrimidinediamine], in that order: 3060 nM and 385 nM.
The like results for `NS(=O)(=O)c1cccc(Nc2ncc(F)c(Nc3cnc4ccccc4c3)n2)c1` [VII-66, N2-(3-Aminosulfonylphenyl)-5-fluoro-N4-(quinolin-3-yl)-2,4-pyrimidinediamine] were, in that order, 2870 nM and 369 nM.
With `Cc1ccc(Nc2ncc(F)c(Nc3cccc4ncccc34)n2)cc1S(N)(=O)=O` [VII-67, N2-(3-Aminosulfonyl-4-methylphenyl)-5-fluoro-N4-(quinolin-5-yl)-2,4-pyrimidinediamine], the IC50 in assay [1] (Homo sapiens, T-cell) is 768 nM; in assay [2] (Homo sapiens, Ramos) it was 315 nM.
For `NS(=O)(=O)c1cccc(Nc2ncc(F)c(Nc3cccc4ncccc34)n2)c1` [VII-68, N2-(3-Aminosulfonylphenyl)-5-fluoro-N4-(quinolin-5-yl)-2,4-pyrimidinediamine], in that order: 1300 nM and 812 nM.
For `NS(=O)(=O)c1cccc(Nc2ncc(F)c(Nc3cccc4cccnc34)n2)c1` [VII-78, N2-(3-Aminosulfonylphenyl)-5-fluoro-N4-(quinolin-8-yl)-2,4-pyrimidinediamine], in that order: 682 nM and 85.8 nM.
For the compound `NS(=O)(=O)c1cc(Nc2ncc(F)c(Nc3cccc4cccnc34)n2)ccc1F` [VII-79, N2-(3-Aminosulfonyl-4-fluorophenyl)-5-fluoro-N4-(quinolin-8-yl)-2,4-pyrimidinediamine], the IC50 in assay [1] (Homo sapiens, T-cell) came to 3200 nM; in assay [2] (Homo sapiens, Ramos) it was 206 nM.
For `Cc1ccc(Nc2ncc(F)c(N[C@H]3[C@@H](C(N)=O)[C@@H]4C=C[C@H]3C4)n2)cc1S(N)(=O)=O` [VII-82, (1R,2R,3S,4S)N4-(3-Aminocarbonylbicyclo[2.2.1]hept-5-en-2-yl)-N2-(3-aminosulfonyl-4-methylphenyl)-5-fluoro-2,4-pyrimidinediamine], in that order: 1080 nM and 313 nM.
The like results for `COc1c(C)cc(Nc2ncc(F)c(N[C@H]3[C@@H](C(N)=O)[C@@H]4C=C[C@H]3C4)n2)cc1S(N)(=O)=O` [VII-83, (1R,2R,3S,4S)N2-(3-Aminosulfonyl-4-methoxy-5-methylphenyl)-N4-(3-aminocarbonylbicyclo[2.2.1]hept-5-ene-2-yl)-5-fluoro-2,4-pyrimidinediamine] were, in that order, 937 nM and 77.5 nM.
